Assay [1] concerns the target MAPK14 (human) (UniProt Q16539). Put plainly: Inhibition of TNF-alpha Release in LPS Stimulated Whole Blood Cells.
For assay [2] the target is unchanged. Put plainly: Inhibition of IL-1 beta Release in LPS Stimulated Whole Blood Cells.
Assay [3] has the same target. Put plainly: Inhibition of IL-6 Release in LPS Stimulated Whole Blood Cells.
For assay [4] the target is unchanged. Put plainly: Inhibition of IL-1beta Production in LPS Stimulated PBMC.
Assay [5] has the same target. Put plainly: Inhibition of MAPK14 Kinase Activity.
For assay [6] the target is unchanged. Nature of the assay: Inhibition of TNF-alpha Production in LPS Stimulated PBMC.

SMILES strings stand for the structures.

Broadly, the IC50 is the midpoint of a concentration-inhibition curve. A high value points to lower potency.

Sequence of MAPK14 (human) (Q16539 whole entry, looked up): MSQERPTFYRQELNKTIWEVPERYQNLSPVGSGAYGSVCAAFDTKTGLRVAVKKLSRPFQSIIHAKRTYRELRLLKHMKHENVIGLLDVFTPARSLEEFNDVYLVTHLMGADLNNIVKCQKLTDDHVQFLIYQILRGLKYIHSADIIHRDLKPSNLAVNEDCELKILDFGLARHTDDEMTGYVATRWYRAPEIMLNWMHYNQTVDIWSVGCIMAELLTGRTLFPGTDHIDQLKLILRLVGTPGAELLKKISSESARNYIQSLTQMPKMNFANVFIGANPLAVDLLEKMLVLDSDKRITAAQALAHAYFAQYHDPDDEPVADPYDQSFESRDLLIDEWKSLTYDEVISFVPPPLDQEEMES

For `CC(C)[C@H](N)C(=O)OCCNC(=O)OCc1ccc(N(C(N)=O)c2c(F)cccc2F)nc1-c1ccc(F)cc1F`, the IC50 came out at 55 nM at MAPK14 (human) [1]; 140 nM against MAPK14 (human) [2]; 83 nM against MAPK14 (human) [3]; 12 nM against MAPK14 (human) [4]; 31 nM against MAPK14 (human) [5]; 22 nM on MAPK14 (human) [6].

`CN(C)C=NC(=O)OCc1ccc(N(C(=O)N=CN(C)C)c2c(F)cccc2F)nc1-c1ccc(F)cc1F`: the IC50 on MAPK14 (human) [1] worked out at 4300 nM; against MAPK14 (human) [2], 2200 nM; against MAPK14 (human) [3], 800 nM; at MAPK14 (human) [5], 5000 nM.

In the case of `CN(C)C=NC(=O)OCc1ccc(N(C(N)=O)c2c(F)cccc2F)nc1-c1ccc(F)cc1F`, the half-inhibitory concentration (IC50) against MAPK14 (human) [1] was 20000 nM; on MAPK14 (human) [2], 12200 nM; on MAPK14 (human) [3], 11000 nM; against MAPK14 (human) [4], 50 nM; at MAPK14 (human) [5], 1000 nM; against MAPK14 (human) [6], 50 nM.

The values above are taken from the Kinase Knowledgebase extract (Sharma et al. 2016).
